Molecules are shown by their SMILES.

From US20260062412A1, “NITROGEN-CONTAINING HETEROCYCLIC COMPOUND HAVING MYT1 INHIBITORY ACTIVITY” (CHUGAI SEIYAKU KABUSHIKI KAISHA, priority 2023, published 2026) come the findings set out here.

The test concerns the target MYT1 protein (Homo sapiens (Human), UniProt Q99640). The experiment in a line: Test for binding to ATP binding site of MYT1 (Kinase Tracer 178 / Eu-Anti-GST antibody TR-FRET). The note with it: ATP binding site of MYT1, 30 minutes at room temperature. For orientation: TR-FRET usually uses a lanthanide donor and a delayed reading to cut background.

Chain of MYT1 protein (Q99640 whole entry): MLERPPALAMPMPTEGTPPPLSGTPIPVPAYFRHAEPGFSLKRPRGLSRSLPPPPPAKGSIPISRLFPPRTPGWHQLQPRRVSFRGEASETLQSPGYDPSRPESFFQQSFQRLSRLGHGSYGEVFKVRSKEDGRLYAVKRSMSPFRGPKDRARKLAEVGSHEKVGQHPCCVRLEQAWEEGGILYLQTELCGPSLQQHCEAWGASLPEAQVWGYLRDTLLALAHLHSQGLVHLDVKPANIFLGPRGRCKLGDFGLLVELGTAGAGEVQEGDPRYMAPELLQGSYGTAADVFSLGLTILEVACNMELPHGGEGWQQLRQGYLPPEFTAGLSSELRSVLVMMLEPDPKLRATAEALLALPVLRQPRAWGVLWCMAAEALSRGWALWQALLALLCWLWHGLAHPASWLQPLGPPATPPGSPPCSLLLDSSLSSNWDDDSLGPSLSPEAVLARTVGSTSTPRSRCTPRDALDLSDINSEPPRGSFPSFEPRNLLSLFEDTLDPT

In the case of `N#C[C@H]1C[C@@H](Oc2cc3c(-c4ccc(F)c5[nH]ncc45)c(N)c(=O)[nH]c3c3cccnc23)C1` [Compound C33, (1s,3s)-3-[[3-Amino-4-(7-fluoro-1H-indazol-4-yl)-2-oxo-1H-1,7-phenanthrolin-6-yl]oxy]cyclobutane-1-carbonitrile], the IC50 was 3.5 nM.

With `CC[C@H](C)Oc1cc2c(-c3ccc(F)c4[nH]ncc34)c(N)c(=O)[nH]c2c2cccnc12` [Compound C34, 3-Amino-6-[(2S)-butan-2-yl]oxy-4-(7-fluoro-1H-indazol-4-yl)-1H-1,7-phenanthrolin-2-one], the IC50 came out at 3.7 nM.

In turn, `Nc1c(-c2ccc(F)c3[nH]ncc23)c2cc(OC[C@H]3CCCO3)c3ncccc3c2[nH]c1=O` [Compound C35, 3-Amino-4-(7-fluoro-1H-indazol-4-yl)-6-[[(2R)-oxolan-2-yl]methoxy]-1H-1,7-phenanthrolin-2-one] yielded an IC50 of 4.4 nM.

The compound `Nc1c(-c2ccc(F)c3[nH]ncc23)c2cc(OC[C@@H]3CCCO3)c3ncccc3c2[nH]c1=O` [Compound C37, 3-Amino-4-(7-fluoro-1H-indazol-4-yl)-6-[[(2S)-oxolan-2-yl]methoxy]-1H-1,7-phenanthrolin-2-one] registered an IC50 of 3.9 nM.

Regarding `Nc1c(-c2ccc(F)c3[nH]ncc23)c2cc(OCC3(F)CC3)c3ncccc3c2[nH]c1=O` [Compound C38, 3-Amino-6-[(1-fluorocyclopropyl)methoxy]-4-(7-fluoro-1H-indazol-4-yl)-1H-1,7-phenanthrolin-2-one], the IC50 stood at 5.7 nM.

In the case of `Nc1c(-c2ccc(F)c3[nH]ncc23)c2cc(OCC3CC(F)(F)C3)c3ncccc3c2[nH]c1=O` [Compound C39, 3-Amino-6-[(3,3-difluorocyclobutyl)methoxy]-4-(7-fluoro-1H-indazol-4-yl)-1H-1,7-phenanthrolin-2-one], the IC50 is 6.5 nM.

Take `Nc1c(-c2ccc(F)c3[nH]ncc23)c2cc(OCC3(F)COC3)c3ncccc3c2[nH]c1=O` [Compound C40, 3-Amino-4-(7-fluoro-1H-indazol-4-yl)-6-[(3-fluorooxetan-3-yl)methoxy]-1H-1,7-phenanthrolin-2-one]: the IC50 was 4 nM.

In turn, `Nc1c(-c2ccc(F)c3[nH]ncc23)c2cc(OC3CC4(COC4)C3)c3ncccc3c2[nH]c1=O` [Compound C41, 3-Amino-4-(7-fluoro-1H-indazol-4-yl)-6-(2-oxaspiro[3,3]heptan-6-yloxy)-1H-1,7-one] gave an IC50 of 6.1 nM.

`Nc1c(-c2ccc(F)c3[nH]ncc23)c2cc(O[C@H]3C[C@H](F)C3)c3ncccc3c2[nH]c1=O` [Compound C42, 3-Amino-6-((1r,3r)-3-fluorocyclobutyl)oxy-4-(7-fluoro-1H-indazol-4-yl)-1H-1,7-phenanthrolin-2-one] displayed an IC50 of 2.7 nM.

`Nc1c(-c2ccc(F)c3[nH]ncc23)c2cc(OCCOC(F)(F)F)c3ncccc3c2[nH]c1=O` [Compound C43, 3-Amino-4-(7-fluoro-1H-indazol-4-yl)-6-[2-(trifluoromethoxy)ethoxy]-1H-1,7-phenanthrolin-2-one]: the IC50 is 19 nM.

The compound `Nc1c(-c2ccc(F)c3[nH]ncc23)c2cc(OCC3(C(F)(F)F)CC3)c3ncccc3c2[nH]c1=O` [Compound C44, 3-Amino-4-(7-fluoro-1H-indazol-4-yl)-6-[[1-(trifluoromethyl)cyclopropyl]methoxy]-1H-1,7-one] showed an IC50 of 5.1 nM.

With `CO[C@@H](C)COc1cc2c(-c3ccc(F)c4[nH]ncc34)c(N)c(=O)[nH]c2c2cccnc12` [Compound C45, 3-Amino-4-(7-fluoro-1H-indazol-4-yl)-6-[(2S)-2-methoxypropoxy]-1H-1,7-phenanthrolin-2-one], the IC50 worked out at 3.6 nM.

For `Nc1c(-c2ccc(F)c3[nH]ncc23)c2cc(O[C@@H]3CCCOC3)c3ncccc3c2[nH]c1=O` [Compound C46, 3-Amino-4-(7-fluoro-1H-indazol-4-yl)-6-[(3R)-oxan-3-yl]oxy-1H-1,7-phenanthrolin-2-one], the IC50 amounted to 2.9 nM.

For `Nc1c(-c2ccc(F)c3[nH]ncc23)c2cc(OC3CCS(=O)(=O)CC3)c3ncccc3c2[nH]c1=O` [Compound C47, 3-Amino-6-(1,1-dioxothian-4-yl)oxy-4-(7-fluoro-1H-indazol-4-yl)-1H-1,7-phenanthrolin-2-one], the IC50 came to 4 nM.

For the compound `Nc1c(-c2ccc(F)c3[nH]ncc23)c2cc(OC3CCC(F)(F)CC3)c3ncccc3c2[nH]c1=O` [Compound C48, 3-Amino-6-(4,4-difluorocyclohexyl)oxy-4-(7-fluoro-1H-indazol-4-yl)-1H-1,7-phenanthrolin-2-one], the IC50 amounted to 10 nM.

Take `Nc1c(-c2ccc(F)c3[nH]ncc23)c2cc(OCC34CC(C3)C4)c3ncccc3c2[nH]c1=O` [Compound C49, 3-Amino-6-(1-bicyclo[1.1.1]pentanylmethoxy)-4-(7-fluoro-1H-indazol-4-yl)-1H-1,7-phenanthrolin-2-one]: the IC50 amounted to 1.7 nM.

`CO[C@H](C)COc1cc2c(-c3ccc(F)c4[nH]ncc34)c(N)c(=O)[nH]c2c2cccnc12` [Compound C50, 3-Amino-4-(7-fluoro-1H-indazol-4-yl)-6-[(2R)-2-methoxypropoxy]-1H-1,7-phenanthrolin-2-one] had an IC50 of 4 nM.

On to `Nc1c(-c2ccc(F)c3[nH]ncc23)c2cc(O[C@H]3CCCOC3)c3ncccc3c2[nH]c1=O` [Compound C51, 3-Amino-4-(7-fluoro-1H-indazol-4-yl)-6-[(3S)-oxan-3-yl]oxy-1H-1,7-phenanthrolin-2-one], for which the IC50 was 1.7 nM.

Compound `CC1(COc2cc3c(-c4ccc(F)c5[nH]ncc45)c(N)c(=O)[nH]c3c3cccnc23)CC(F)(F)C1` [Compound C52, 3-Amino-6-[(3,3-difluoro-1-methylcyclobutyl)methoxy]-4-(7-fluoro-1H-indazol-4-yl)-1H-1,7-one] showed an IC50 of 2.6 nM.

`COC1(COc2cc3c(-c4ccc(F)c5[nH]ncc45)c(N)c(=O)[nH]c3c3cccnc23)CC1` [Compound C53, 3-Amino-4-(7-fluoro-1H-indazol-4-yl)-6-[(1-methoxycyclopropyl)methoxy]-1H-1,7-phenanthrolin-2-one] had an IC50 of 4.2 nM.

As for `N#CC1(COc2cc3c(-c4ccc(F)c5[nH]ncc45)c(N)c(=O)[nH]c3c3cccnc23)CC1` [Compound C54, 1-[[3-Amino-4-(7-fluoro-1H-indazol-4-yl)-2-oxo-1H-1,7-phenanthrolin-6-yl]oxymethyl]cyclopropane-1-carbonitrile], the IC50 was 1.4 nM.

`N#CC1(COc2cc3c(-c4ccc(F)c5[nH]ncc45)c(N)c(=O)[nH]c3c3cccnc23)CCC1` [Compound C55, 1-[[3-Amino-4-(7-fluoro-1H-indazol-4-yl)-2-oxo-1H-1,7-phenanthrolin-6-yl]oxymethyl]cyclobutane-1-carbonitrile]: the IC50 was found to be 0.92 nM.

On to `Nc1c(-c2ccc(F)c3[nH]ncc23)c2cc(OCC3(F)CCC3)c3ncccc3c2[nH]c1=O` [Compound C56, 3-Amino-6-[(1-fluorocyclobutyl)methoxy]-4-(7-fluoro-1H-indazol-4-yl)-1H-1,7-phenanthrolin-2-one], for which the IC50 is 1.7 nM.

`Nc1c(-c2ccc(F)c3[nH]ncc23)c2cc(OC3CC(C(F)(F)F)C3)c3ncccc3c2[nH]c1=O` (stereo not shown) [Compound C57, 3-Amino-4-(7-fluoro-1H-indazol-4-yl)-6-[3-(trifluoromethyl)cyclobutyl]oxy-1H-1,7-one] showed an IC50 of 2.5 nM.

Turning to `Nc1c(-c2ccc(F)c3[nH]ncc23)c2cc(OC3CC(C(F)F)C3)c3ncccc3c2[nH]c1=O` (stereo not shown) [Compound C58, 3-Amino-6-[3-(difluoromethyl)cyclobutyl]oxy-4-(7-fluoro-1H-indazol-4-yl)-1H-1,7-phenanthrolin-2-one], the IC50 stood at 1.5 nM.

`CC(C)(COc1cc2c(-c3ccc(F)c4[nH]ncc34)c(N)c(=O)[nH]c2c2cccnc12)C(F)(F)F` [Compound C59, 3-Amino-4-(7-fluoro-1H-indazol-4-yl)-6-(3,3,3-trifluoro-2,2-dimethylpropoxy)-1H-1,7-one] came in with an IC50 of 5.3 nM.

With `CCCOc1cc2c(-c3ccc(F)c4[nH]ncc34)c(N)c(=O)[nH]c2c2cccnc12` [Compound C60, 3-Amino-4-(7-fluoro-1H-indazol-4-yl)-6-propoxy-1H-1,7-phenanthrolin-2-one], the IC50 stood at 0.85 nM.

In turn, `C[C@@H](F)COc1cc2c(-c3ccc(F)c4[nH]ncc34)c(N)c(=O)[nH]c2c2cccnc12` [Compound C61, (R)-3-amino-4-(7-fluoro-1H-indazol-4-yl)-6-(2-fluoropropoxy)-1,7-phenanthrolin-2(1H)-one] gave an IC50 of 1.7 nM.

For the compound `N#CCOc1cc2c(-c3ccc(F)c4[nH]ncc34)c(N)c(=O)[nH]c2c2cccnc12` [Compound C62, 2-[[3-Amino-4-(7-fluoro-1H-indazol-4-yl)-2-oxo-1H-1,7-phenanthrolin-6-yl]oxy]acetonitrile], the IC50 is 1.6 nM.

`Nc1c(-c2ccc(F)c3[nH]ncc23)c2cc(SC(F)F)c3ncccc3c2[nH]c1=O` [Compound C63, 3-Amino-6-(difluoromethylsulfanyl)-4-(7-fluoro-1H-indazol-4-yl)-1H-1,7-phenanthrolin-2-one] showed an IC50 of 1.1 nM.

Turning to `Nc1c(-c2cc(F)c(F)c3[nH]ncc23)c2cc(Br)c3ncccc3c2[nH]c1=O` [Compound C66, 3-Amino-6-bromo-4-(6,7-difluoro-1H-indazol-4-yl)-1H-1,7-phenanthrolin-2-one], the IC50 was determined as 4.9 nM.

In turn, `Nc1c(-c2cc(F)c(F)c3[nH]ncc23)c2cc(OCC(F)F)c3ncccc3c2[nH]c1=O` [Compound C68, 3-Amino-6-(2,2-difluoroethoxy)-4-(6,7-difluoro-1H-indazol-4-yl)-1H-1,7-phenanthrolin-2-one] had an IC50 of 1.4 nM.

Consider `Nc1c(-c2cc(F)c(F)c3[nH]ncc23)c2cc(OCC3CC3)c3ncccc3c2[nH]c1=O` [Compound C70, 3-Amino-6-(cyclopropylmethoxy)-4-(6,7-difluoro-1H-indazol-4-yl)-1H-1,7-phenanthrolin-2-one], for which the IC50 was 1.1 nM.

As for `Nc1c(-c2cc(F)c(F)c3[nH]ncc23)c2cc(OCC3(F)CC3)c3ncccc3c2[nH]c1=O` [Compound C71, 3-Amino-4-(6,7-difluoro-1H-indazol-4-yl)-6-[(1-fluorocyclopropyl)methoxy]-1H-1,7-one], the IC50 was determined as 1.7 nM.

Usually IC50 stands for the concentration that gives 50% inhibition. A high value points to weaker potency.
